{"source": "ChEMBL document CHEMBL4308841", "about": "“Synthesis, in vitro antiproliferative activity, and kinase inhibitory effects of pyrazole-containing diarylureas and diarylamides” (Eur J Med Chem, 2018)", "assay_type_in_all_cases": "functional, cell-based", "key": {"NCI-H23": {"tested_on": "NCI-H23", "assay": "Growth inhibition of human NCI-H23 cells incubated for 48 hrs by sulforhodamine B assay", "conditions": "NCI-H23, 48 h"}, "IGROV-1": {"tested_on": "IGROV-1", "assay": "Growth inhibition of human IGROV1 cells incubated for 48 hrs by sulforhodamine B assay", "conditions": "IGROV-1, 48 h, read-out: TGI"}, "HOP-92": {"tested_on": "HOP-92", "assay": "Growth inhibition of human HOP92 cells incubated for 48 hrs by sulforhodamine B assay", "conditions": "HOP-92, 48 h"}, "T47D": {"tested_on": "T47D", "assay": "Growth inhibition of human T47D cells incubated for 48 hrs by sulforhodamine B assay"}, "HCT-116": {"tested_on": "HCT-116", "assay": "Growth inhibition of human HCT116 cells incubated for 48 hrs by sulforhodamine B assay", "conditions": "HCT-116, 48 h"}, "NCI-H522": {"tested_on": "NCI-H522", "assay": "Growth inhibition of human NCI-H522 cells incubated for 48 hrs by sulforhodamine B assay", "conditions": "NCI-H522, 48 h"}, "KM12": {"tested_on": "KM12", "assay": "Growth inhibition of human KM12 cells incubated for 48 hrs by sulforhodamine B assay", "conditions": "KM12, 48 h"}, "MDA-MB-468": {"tested_on": "MDA-MB-468", "assay": "Growth inhibition of human MDA-MB-468 cells incubated for 48 hrs by sulforhodamine B assay", "conditions": "MDA-MB-468, 48 h"}, "CCRF-CEM": {"tested_on": "CCRF-CEM", "assay": "Growth inhibition of human CCRF-CEM cells incubated for 48 hrs by sulforhodamine B assay"}, "Malme-3M": {"tested_on": "Malme-3M", "assay": "Growth inhibition of human MALME-3M cells incubated for 48 hrs by sulforhodamine B assay"}, "HOP-62": {"tested_on": "HOP-62", "assay": "Growth inhibition of human HOP62 cells incubated for 48 hrs by sulforhodamine B assay", "conditions": "HOP-62, 48 h"}, "HT-29": {"tested_on": "HT-29", "assay": "Growth inhibition of human HT-29 cells incubated for 48 hrs by sulforhodamine B assay", "conditions": "HT-29, 48 h"}, "SK-MEL-2": {"tested_on": "SK-MEL-2", "assay": "Growth inhibition of human SK-MEL-2 cells incubated for 48 hrs by sulforhodamine B assay", "conditions": "SK-MEL-2, 48 h"}, "COLO 205": {"tested_on": "COLO 205", "assay": "Growth inhibition of human COLO205 cells incubated for 48 hrs by sulforhodamine B assay", "conditions": "COLO 205, 48 h"}, "NCI-H226": {"tested_on": "NCI-H226", "assay": "Growth inhibition of human NCI-H226 cells incubated for 48 hrs by sulforhodamine B assay", "conditions": "NCI-H226, 48 h"}, "UACC-257": {"tested_on": "UACC-257", "assay": "Growth inhibition of human UACC257 cells incubated for 48 hrs by sulforhodamine B assay", "conditions": "UACC-257, 48 h"}, "SK-MEL-5": {"tested_on": "SK-MEL-5", "assay": "Growth inhibition of human SK-MEL-5 cells incubated for 48 hrs by sulforhodamine B assay", "conditions": "SK-MEL-5, 48 h"}, "MOLT-4": {"tested_on": "MOLT-4", "assay": "Growth inhibition of human MOLT4 cells incubated for 48 hrs by sulforhodamine B assay", "conditions": "MOLT-4, 48 h, read-out: TGI"}, "PC-3": {"tested_on": "PC-3", "assay": "Growth inhibition of human PC3 cells incubated for 48 hrs by sulforhodamine B assay", "conditions": "PC-3, 48 h"}, "ACHN": {"tested_on": "ACHN", "assay": "Growth inhibition of human ACHN cells incubated for 48 hrs by sulforhodamine B assay", "conditions": "read-out: TGI"}, "M14": {"tested_on": "M14", "assay": "Growth inhibition of human M14 cells incubated for 48 hrs by sulforhodamine B assay", "conditions": "M14, 48 h"}, "MDA-MB-435": {"tested_on": "MDA-MB-435", "assay": "Growth inhibition of human MDA-MB-435 cells incubated for 48 hrs by sulforhodamine B assay", "conditions": "MDA-MB-435, 48 h"}, "RPMI-8226": {"tested_on": "RPMI-8226", "assay": "Growth inhibition of human RPMI8226 cells incubated for 48 hrs by sulforhodamine B assay", "conditions": "RPMI-8226, 48 h"}, "TK-10": {"tested_on": "TK-10", "assay": "Growth inhibition of human TK10 cells incubated for 48 hrs by sulforhodamine B assay", "conditions": "TK-10, 48 h"}, "MCF7": {"tested_on": "MCF7", "assay": "Growth inhibition of human MCF7 cells incubated for 48 hrs by sulforhodamine B assay", "conditions": "MCF7, 48 h, read-out: TGI"}, "HL-60(TB)": {"tested_on": "HL-60(TB)", "assay": "Growth inhibition of human HL-60(TB) cells incubated for 48 hrs by sulforhodamine B assay", "conditions": "HL-60, 48 h"}, "SF-539": {"tested_on": "SF-539", "assay": "Growth inhibition of human SF539 cells incubated for 48 hrs by sulforhodamine B assay", "conditions": "SF-539, 48 h"}, "SF-295": {"tested_on": "SF-295", "assay": "Growth inhibition of human SF295 cells incubated for 48 hrs by sulforhodamine B assay", "conditions": "SF-295, 48 h"}, "NCI/ADR-RES": {"tested_on": "NCI/ADR-RES", "assay": "Growth inhibition of human NCI/ADR-RES cells incubated for 48 hrs by sulforhodamine B assay", "conditions": "read-out: TGI"}, "MDA-MB-231": {"tested_on": "MDA-MB-231", "assay": "Growth inhibition of human MDA-MB-231 cells incubated for 48 hrs by sulforhodamine B assay", "conditions": "MDA-MB-231, 48 h"}, "UACC-62": {"tested_on": "UACC-62", "assay": "Growth inhibition of human UACC62 cells incubated for 48 hrs by sulforhodamine B assay", "conditions": "UACC-62, 48 h"}}, "data": [{"smiles": "CNC(=O)c1cc(Oc2ccc(NC(=O)Nc3ccc(Cl)c(C(F)(F)F)c3)cc2)ccn1", "note": "[SORAFENIB]", "values": [{"measurement": "IC50", "setting": "NCI-H23", "result": 2, "unit": "µM"}, {"measurement": "TGI", "setting": "NCI-H23; read-out: TGI", "result": 5.01, "unit": "µM"}, {"measurement": "TGI", "setting": "IGROV-1", "result": 10, "unit": "µM"}, {"measurement": "IC50", "setting": "HOP-92", "result": 1.58, "unit": "µM"}, {"measurement": "TGI", "setting": "HOP-92; read-out: TGI", "result": 5.01, "unit": "µM"}, {"measurement": "IC50", "setting": "T47D", "result": 1.58, "unit": "µM"}, {"measurement": "IC50", "setting": "HCT-116", "result": 1.58, "unit": "µM"}, {"measurement": "IC50", "setting": "NCI-H522", "result": 2, "unit": "µM"}, {"measurement": "IC50", "setting": "KM12", "result": 1.58, "unit": "µM"}, {"measurement": "IC50", "setting": "MDA-MB-468", "result": 2, "unit": "µM"}, {"measurement": "IC50", "setting": "CCRF-CEM", "result": 2, "unit": "µM"}, {"measurement": "IC50", "setting": "Malme-3M", "result": 2, "unit": "µM"}, {"measurement": "IC50", "setting": "HOP-62", "result": 2, "unit": "µM"}, {"measurement": "IC50", "setting": "HT-29", "result": 2, "unit": "µM"}, {"measurement": "IC50", "setting": "SK-MEL-2", "result": 2, "unit": "µM"}, {"measurement": "IC50", "setting": "COLO 205", "result": 2, "unit": "µM"}, {"measurement": "IC50", "setting": "NCI-H226", "result": 2, "unit": "µM"}, {"measurement": "IC50", "setting": "UACC-257", "result": 2, "unit": "µM"}, {"measurement": "TGI", "setting": "UACC-257; read-out: TGI", "result": 5.01, "unit": "µM"}, {"measurement": "IC50", "setting": "SK-MEL-5", "result": 1.58, "unit": "µM"}, {"measurement": "TGI", "setting": "MOLT-4", "result": 100, "unit": "µM"}, {"measurement": "IC50", "setting": "PC-3", "result": 2, "unit": "µM"}, {"measurement": "TGI", "setting": "ACHN", "result": 10, "unit": "µM"}, {"measurement": "IC50", "setting": "M14", "result": 2, "unit": "µM"}, {"measurement": "IC50", "setting": "MDA-MB-435", "result": 1.58, "unit": "µM"}, {"measurement": "IC50", "setting": "RPMI-8226", "result": 1.58, "unit": "µM"}, {"measurement": "IC50", "setting": "TK-10", "result": 3.98, "unit": "µM"}, {"measurement": "TGI", "setting": "TK-10; read-out: TGI", "result": 10, "unit": "µM"}, {"measurement": "TGI", "setting": "MCF7", "result": 7.94, "unit": "µM"}, {"measurement": "IC50", "setting": "HL-60(TB)", "result": 1.58, "unit": "µM"}, {"measurement": "TGI", "setting": "HL-60(TB); read-out: TGI", "result": 100, "unit": "µM"}, {"measurement": "IC50", "setting": "SF-539", "result": 1.58, "unit": "µM"}, {"measurement": "IC50", "setting": "SF-295", "result": 1.58, "unit": "µM"}, {"measurement": "TGI", "setting": "NCI/ADR-RES", "result": 7.94, "unit": "µM"}, {"measurement": "IC50", "setting": "MDA-MB-231", "result": 1.26, "unit": "µM"}, {"measurement": "IC50", "setting": "UACC-62", "result": 1.58, "unit": "µM"}]}]}
